Test results taken from patent publication EP0768085A1, “ANTIBACTERIAL AGENT” (DAIICHI PHARMACEUTICAL CO., LTD., priority 1994, dated 1996).
In brackets after ≈: the same amount, converted by molar mass.

Experiments:
[1] = system: methicillin-resistant Staphylococcus aureus (MRSA) from humans; assay: Antibacterial activity (IC), agar as in Example 8 (Example 19, Table 52); assay type: cell-based; settings: 18 h
How it was run: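 MRSA human isolate at 10^6 CFU/ml on Mueller-Hinton agar containing compound at 100, 10 or 1 µg/ml, grown 18 h at 37 °C. IC is the lowest tested level that inhibited growth, binned as ≤100, ≤10 or ≤1 µg/ml.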

in vivo = settings: mouse, oral administration, single dose, suspended in aqueous 0.5% CMC solution, male mice, observed for 14 days
Experimental: Acute toxicity (LD50) of a ketonitrile derivative of the present invention (Compound No. 4) was tested using male mice (Slc:ddY, 5 weeks old). To groups of each 5 mice, the compounds suspended in aqueous 0.5% CMC solution were forcibly dosed orally at a single time so that the final dosages of 707, 1,000, 1,414, and 2,000 mg/kg were attained. […] As a result, LD50 value under conditions of oral administration was estimated to be higher than 2,000 mg/kg. Thus, the compound was confirmed to be quite non-toxic.
To groups of each 5 mice, the compounds suspended in aqueous 0.5% CMC solution were forcibly dosed orally at a single time so that the final dosages of 500, 1,000, 1,500, and 2,000 mg/kg were attained. […] As a result, the LD50 value was estimated to be higher than 2,000 mg/kg. Thus, the compounds were confirmed to be quite non-toxic.

[2] = system: Staphylococcus aureus (209-P); assay: Antibacterial activity (IC), agar as in Example 8 (Example 15, Table 48); assay type: cell-based; settings: 18 h
How it was run: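 Samples in DMSO, diluted with sterile water, incorporated into Mueller-Hinton agar at 1, 10 and 100 µg/ml final. Bacteria seeded at 10^6 CFU/ml and grown 18 h at 37°C. Inhibition read as turbidity; values reported as IC ranges rather than exact MICs.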

[3] = system: Pasteurella multocida (Kobe-6); assay: Antibacterial activity (IC), agar as in Example 8 (Example 17, Table 50); assay type: cell-based; settings: 18 h, origin pig
How it was run: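 Agar dilution on Mueller-Hinton agar with compound at 100, 10 and 1 µg/ml, inoculated at 10^6 CFU/ml with pig-origin strain Kobe-6. After 18 h at 37 °C, IC scored from turbidity and reported as a band (≤100, ≤10, ≤1 µg/ml).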

[4] = system: Bordetella bronchiseptica (S1); assay: Antibacterial activity (IC), agar as in Example 8 (Example 18, Table 51); assay type: cell-based; settings: 18 h
Experimental: (§1) The antibacterial action was evaluated by the inhibitory concentration (hereinafter abbreviated as IC) at which propagation of the bacteria cultured at 37°C for 18 hours was inhibited. Inhibition was determined by the turbidity of the medium. The expressions "IC≤100", "≤10", and "≤1" indicate that MIC-equivalent values obtained at the succesive […] dilution of the sample are 100-10 µg/ml, 10-1 µg/ml, and not more than 1 µg/ml, respectively. […] (In the subsequent Examples, the same rule applies correspondingly.) Table 39
(§2) A suitable amount of a sample was dissolved in dimethylsulfoxide (DMSO), after which the resulting solution was diluted with the same amount of sterilized distilled water to prepare a bulk sample of 1,000 µg/ml. Separately, a bacterial liquid for the test (methicillin-resistant Staphylococcus aureus (MRSA) isolated from humans) which had been cultured in Mueller-Hinton broth (product of DIFCO) was prepared and inoculated to a Mueller-Hinton agar (product of DIFCO) containing the sample so that the final inoculation amount of 10^6 CFU/ml was achieved. The final concentrations of the samples were 100, 10, and 1 µg/ml.
(§3) After culturing at 37°C for 18 hours, the antibacterial activity was evaluated in terms of IC in a manner similar to that described in Example 4.
(§4) In a manner similar to that described in Example 8, antibacterial activity of the invention compound was determined. The bacterium used for the test was Bordetella bronchiseptica (S1) and Bordetella bronchiseptica (SM2-4).

[5] = system: Bordetella bronchiseptica (SM2-4); assay: as above; assay type: cell-based; settings: 18 h
Experimental: as §1, §2, §3, §4

[6] = Absorption test, concentration of the compounds in serum by HPLC; assay type: in vivo; settings: mouse, mice, 100 mg/kg body weight, oral administration, serum at 1, 3, 5 and 24 hours, read-out: time at which concentration in serum reached a maximum
Experimental: An absorption test was performed using ketonitrile derivatives of the present invention (Compound Nos. […] and 155) on mice by dosing the derivatives in amounts of 100 mg/kg body weight. One, three, five, and 24 hours after administration of the compounds, blood was harvested and serum was separated therefrom. The concentration of the compounds in serum was determined by HPLC. As a result, Compound No. 155 and Compound No. 101 reached a maximum in concentration after 1 hour and 3 hours of administration, respectively.

[7] = system: Streptococcus aureus (TI-1); assay: Antibacterial activity (IC), agar as in Example 8 (Example 16, Table 49); assay type: cell-based; settings: 18 h
How it was run: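 Compound at final 100, 10 or 1 µg/ml in Mueller-Hinton agar, inoculated with […] aureus (TI-1) at 10^6 CFU/ml and cultured 37°C for 18 h. Inhibition read from medium turbidity; IC given as 100-10, 10-1 or ≤1 µg/ml ranges from 2-fold dilution.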

Pasteurella from fish = assay: Antibacterial activity (IC), agar as in Example 8, media with 1.5% NaCl, 25°C (Example 20, Tables 53-55); assay type: cell-based; settings: for MIC: Pasteurella piscicida KP94-02
How it was run: (§5)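 Growth inhibition was scored by turbidity after culture at 25°C, with IC bands set from 2-fold-dilution MIC-equivalents. Samples were tested at final 100, 10 and 1 µg/ml in Mueller-Hinton agar with 1.5% NaCl, seeded with 10^6 CFU/ml of the fish isolates.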

Enterococcus from fish = assay: as above; assay type: cell-based; settings: for MIC: Enterococcus Seriolicida SE94-002
How it was run: as §5

[8] = Enterococcus Seriolicida KG86050
[9] = Enterococcus Seriolicida MS89060
[10] = Enterococcus Seriolicida MS89064
[11] = Enterococcus Seriolicida MS89066
[12] = Enterococcus Seriolicida MS89068
[13] = Enterococcus Seriolicida SE94-001
[14] = Enterococcus Seriolicida SE94-003
[15] = Enterococcus Seriolicida SE94-004
[16] = Enterococcus Seriolicida SE94-005

Row | SMILES | MIC ([1]; MRSA strain 891179) [µg/mL] | MIC ([1]; MRSA strain 891185) [µg/mL] | MIC ([1]; MRSA strain 891187) [µg/mL] | MIC ([1]; MRSA strain 891192) [µg/mL] | MIC ([1]; MRSA strain 900048) [µg/mL] | MIC ([1]; MRSA strain 900056) [µg/mL] | MIC [2] [µg/mL] | MIC [3] [µg/mL] | MIC [4] [µg/mL] | MIC [5] [µg/mL] | MIC [7] [µg/mL] | MIC (Pasteurella from fish) [µg/mL] | IC (Pasteurella from fish; Pasteurella piscicida KP94-04) | IC (Pasteurella from fish; Pasteurella piscicida KP94-05) | IC (Pasteurella from fish; Pasteurella piscicida KP94-06) | IC (Enterococcus from fish; Enterococcus Seriolicida HI) [µg/mL] | IC (Enterococcus from fish; [8]) [µg/mL] | IC (Enterococcus from fish; [9]) [µg/mL] | IC (Enterococcus from fish; [10]) [µg/mL] | IC (Enterococcus from fish; [11]) [µg/mL] | also measured
1 | CC(Oc1cc(Oc2ccc(C(F)(F)F)cc2Cl)ccc1Cl)C(=O)C(C#N)c1cccc(Br)c1 (centres unmarked) [Compound No. 155, 2-(3-bromophenyl)-4-[5-(2-chloro-4-trifluoromethylphenoxy)-2-chlorophenoxy]-3-oxopentanonitrile] | ≤ 1 | ≤ 1 | ≤ 1 | ≤ 1 | ≤ 1 | ≤ 1 | ≤ 1 | 10 to 100 (≈ 17.4 to 174 µM) | 10 to 100 (≈ 17.4 to 174 µM) | 10 to 100 (≈ 17.4 to 174 µM) | ≤ 1 | 10 to 100 (≈ 17.4 to 174 µM) | ≤100 (MIC-equivalent values obtained at the succesive 2-fold dilution of the sample are 100-10 µg/ml) | ≤100 (MIC-equivalent values obtained at the succesive 2-fold dilution of the sample are 100-10 µg/ml) | ≤100 (MIC-equivalent values obtained at the succesive 2-fold dilution of the sample are 100-10 µg/ml) | ≤ 1 | ≤ 1 | ≤ 1 | ≤ 1 | ≤ 1 | LD50 at 336 h (in vivo): > 2000 mg/kg; Tmax [6]: 1 h; IC (Enterococcus from fish; [12]): ≤ 1 µg/mL; IC (Enterococcus from fish; [13]): ≤ 1 µg/mL; MIC (Enterococcus from fish): ≤ 1 µg/mL; IC (Enterococcus from fish; [14]): ≤ 1 µg/mL; IC (Enterococcus from fish; [15]): ≤ 1 µg/mL; IC (Enterococcus from fish; [16]): ≤ 1 µg/mL
2 | CC(Oc1cc(Cl)cc(Oc2ccc(C(F)(F)F)cc2Cl)c1)C(=O)C(C#N)c1cccc(Br)c1 (centres unmarked) [compound 213] | 1 to 10 (≈ 1.74 to 17.4 µM) | ≤ 1 | ≤ 1 | ≤ 1 | 1 to 10 (≈ 1.74 to 17.4 µM) | 1 to 10 (≈ 1.74 to 17.4 µM) | 1 to 10 (≈ 1.74 to 17.4 µM) | 1 to 10 (≈ 1.74 to 17.4 µM) | 10 to 100 (≈ 17.4 to 174 µM) | 10 to 100 (≈ 17.4 to 174 µM) | 1 to 10 (≈ 1.74 to 17.4 µM) | 1 to 10 (≈ 1.74 to 17.4 µM) | ≤10 (10-1 µg/ml) | ≤10 (10-1 µg/ml) | ≤10 (10-1 µg/ml) | ≤ 1 | ≤ 1 | ≤ 1 | ≤ 1 | ≤ 1 | IC (Enterococcus from fish; [12]): ≤ 1 µg/mL; IC (Enterococcus from fish; [13]): ≤ 1 µg/mL; MIC (Enterococcus from fish): ≤ 1 µg/mL; IC (Enterococcus from fish; [14]): ≤ 1 µg/mL; IC (Enterococcus from fish; [15]): ≤ 1 µg/mL; IC (Enterococcus from fish; [16]): ≤ 1 µg/mL
3 | CC(Oc1cc(Cl)cc(Oc2ccc(C(F)(F)F)cc2Cl)c1)C(=O)C(C#N)c1ccc(Cl)c(Cl)c1 (centres unmarked) [compound 212] | ≤ 1 | ≤ 1 | ≤ 1 | ≤ 1 | ≤ 1 | ≤ 1 | ≤ 1 | 1 to 10 (≈ 1.78 to 17.8 µM) | 10 to 100 (≈ 17.8 to 178 µM) | 10 to 100 (≈ 17.8 to 178 µM) | ≤ 1 | 1 to 10 (≈ 1.78 to 17.8 µM) | ≤10 (10-1 µg/ml) | ≤10 (10-1 µg/ml) | ≤10 (10-1 µg/ml) | ≤ 1 | ≤ 1 | ≤ 1 | ≤ 1 | ≤ 1 | IC (Enterococcus from fish; [12]): ≤ 1 µg/mL; IC (Enterococcus from fish; [13]): ≤ 1 µg/mL; MIC (Enterococcus from fish): ≤ 1 µg/mL; IC (Enterococcus from fish; [14]): ≤ 1 µg/mL; IC (Enterococcus from fish; [15]): ≤ 1 µg/mL; IC (Enterococcus from fish; [16]): ≤ 1 µg/mL
